Measurements published in patent US20070155786A1, “Methods for treating oral aphthous stomatitis and oral mucositis” (priority 2004, published 2007).
Counter-ions that a name gives are not always drawn.

Experiments:
Assay type in all cases: in vivo, human
aphtha (canker sores) = assay: Case reports: mouth rinses with a quinoline derivative solution in patients with aphthae
Excerpt: (§1) Hydroxychloroquine (HCQ) was obtained from Sanofi-Syntelabo, Inc. New York USA, quinine (Q) and quinidine sulfate were obtained from Rakah, Holon, Israel. The compounds were mixed with tap water. Chlorhexidine was obtained from LACER S.A., Barcelona, Spain.
A person, generally in good health, reported the presence of canker sores for several years (periodic recurrences of 3 to 4 episodes per year). […] The patient was seen five days after the appearance of the painful aphtha. They started oral rinses with 10 ml of hydroxychloroquine (HCQ) solution, 3.7 mg/ml, three times a day, each rinse for 3 to 5 min. […] They continued to rinse for about a week. No additional aphthous lesions appeared during 8 weeks of follow-up.
A person, in otherwise general good health, came with two painful major aphthae, one of 12 mm diameter on the left side of the lower lip mucosa and the second on the right latero-ventral side of the tongue, about 8 mm diameter. They reported the presence of recurrent aphthous lesions since they were […]. During the last year, they continuously suffered from recurrent episodes of major aphthae, with virtually no aphtae-free intervals. Each episode of aphthae usually lasted for 3 to 6 weeks. They started oral rinses with 10 ml of HCQ solution, 3.7 mg/ml, three times a day, each rinse for 3 to 5 min. […] Concomitantly, 2 new lesions of minor aphthae, 3 mm in diameter each, were seen, one on the left side of the upper lip mucosa and the other on the ventro-anterior side of the tongue. […] In total, they rinsed with the HCQ solution for 20 days.
A child, in otherwise general good health, reported the presence of recurrent aphthous lesions of different sizes for the last 2 years. The last episode had been about 3 months before examination. The lesions had disappeared within 2 weeks after using different conventional treatments. At clinical examination, one aphtha of about 3 mm diameter was found on the lower lip mucosa and another one about 6 mm diameter was found on the upper lip mucosa. Both lesions were painful. They started rinsing with 10 ml of HCQ solution, 2.5 mg/ml, three times a day, each rinse for 3 to 5 min. […] They reported to be free of any pain already after 24 hours from the start of rinsing. […], therefore, was able to eat everything. The patient was advised to continue rinsing with 10 ml of hydroxychloroquine (HCQ) solution, 3.7 mg/ml, three times a day, each rinse for 3 to 5 min for 7 additional days. […] They still continued with the rinses for 5 additional days, as recommended.
A person reported suffering from recurrent episodes of canker sores for many years, with 2 to 3 episodes per year. The last episode had occurred about 6 months before examination. They were diagnosed with diabetes mellitus, so that use of steroidal modalities for treatment of their aphthous lesions was contraindicated. […] They started rinsing with 10 ml of HCQ solution, 1.2 mg/ml, three times a day, each rinse for 3 to 5 min. After 24 hours from start of rinses they were free of any pain and was able to eat everything. […] They remained aphthae-free for 7 months.
A person, generally in good health, reports the presence of canker sores since childhood with about 8 to 10 recurrences per year. At clinical examination a minor painful aphtha was present on the mucosa of the lower lip. The ulcer was about 4-5 mm in diameter and was present for 8 days. […] They started to rinse with 10 ml of hydroxychloroquine (HCQ) solution, 1.2 mg/ml, three times a day, each rinse for 3 to 5 min.
A person presented a painful minor aphtha of about 3 mm in diameter in the right vestibulum of the lower jaw adjacent to the first molar. They reported the presence of pain and inconvenience for 2 days. In the past, they had experienced recurrences of such lesions every 3 to 4 months. They started to rinse with 10 ml of 0.085 mg/ml quinine solution for 3 to 5 minutes, about 5 to 7 times a day. […]

aphtha = assay: Case reports: rinse with quinoline derivative solution followed by chlorhexidine rinse in patients with aphthae
Excerpt: as §1
A person, generally in good health, presented a most painful, distressing major aphtha of approximately 1 cm diameter on the ventro-lateral tongue. They had suffered the presence of such lesions for several years (recurrences of 6 to 8 episodes per year). The current lesion had been present for about one week. During examination 2 lymph nodes were palpated in the floor of mouth, probably due to a secondary infection. They started to apply a rinse with 3.72 mg/cc HCQ solution (for 3 to 5 minutes) followed by a rinse with 0.12% chlorhexidine alcohol free solution (for about 1 minute), 3 times a day. Two days later, the patient was totally free of pain and the size of the aphtha diminished to about 7 mm diameter.
A person, presented a painful minor aphtha on the ventro-lateral part of the tongue. They reported its appearance about 1 week ago. In the past, frequent episodes of minor aphthae had occurred every 2 months. They started to rinse with 10 ml of quinine sulfate Solution 3 mg/cc (for 3 to 5 minutes) followed by a rinse with 0.12% chlorhexidine alcohol free solution (for about 1 minute), 3 times a day.

[1] = tested on: oral aphthous stomatitis and oral mucositis; assay: General statements on treating oral aphthous stomatitis and oral mucositis in patients
Excerpt: In experiments carried out with particular preferred compounds of the invention, the pain caused by ulcerative lesions disappeared often within hours, and the ulcers and other symptoms disappeared usually within days. For example, patients with life-long recurrent aphthae problems achieved quick relief of pains caused by aphthae ulcers after rinsing their mouth with aqueous solutions comprising said compounds. The effect is often enhanced when said quinoline derivative is used together with an antiseptic.
Quinine at levels up to 83 ppm is approved by FDA for use in beverages as a flavoring agent.
In other preferred embodiment of this invention, oral mucositis is treated by a quinine (Q) salt in solution or suspension, which is used several times a day for rinsing mouth without swallowing, followed by rinsing with chlorhexidine solution. The concentration of Q is preferably about 0.083 mg/ml, and chlorhexidine solution has preferably a concentration from 0.05% to 0.2%. The rinsing with each of the two components is preferably performed 3-5 times a day. Said Q solution may comprise Q dihydrochloride, Q hydrochloride, Q sulfate, and other Q salts. Said Q suspension may, for example, comprise Q sulfate. Stereoisomers of quinine and their salts, such as quinidine sulfate, have been also found active.

erosive lichen planus = assay: Case report: rinse and swallow of quinine solution in a patient with erosive lichen planus
Excerpt: as §1
A person presented diffuse erosions/ulcerations of the buccal, labial and lingual mucosae that were present for at least 6 months. They complained of pain and difficulty to eat and speak. The erosive/ulcerative lesions were clinically specific for erosive lichen planus. They started to rinse (for 5 to 10 min) and swallow about 10- 20 ml of 0.085 mg/ml quinine solution, 5 to 7 times a day. […] They were able to maintain a stable asymptomatic condition of their lichen planus by means of quinine solution during about 1 year follow-up period.

[2] = Example 2: HCQ solution 3.7 mg/ml
[3] = Example 2: HCQ solution 3.7 mg/ml, three times a day
[4] = Example 3: HCQ solution 2.5 mg/ml, three times a day
[5] = Example 7: 0.085 mg/ml quinine solution, rinse and swallow

CCN(CCO)CCCC(C)Nc1ccnc2cc(Cl)ccc12 (centres unmarked) [HCQ, Hydroxychloroquine]
follow-up without additional aphthous lesions (aphtha (canker sores); Example 1: HCQ solution 3.7 mg/ml, rinsed about a week): 8 weeks
state of the aphtha 24 hours after start of treatment (aphtha (canker sores); Example 1: minor aphtha, HCQ solution 3.7 mg/ml, three times a day): almost disappeared
time after start of treatment until free of any pain (aphtha (canker sores); Example 1: person, minor aphtha, rinses 10 ml HCQ solution 3.7 mg/ml, three times a day, 3 to 5 min): Twenty-four
new minor aphtha (3 mm) on the lip after 4 more days of rinsing (aphtha (canker sores); [2]): diminished significantly in its size
new minor aphtha (3 mm) on the tongue after 4 more days of rinsing (aphtha (canker sores); [2]): disappeared
pain from the two new minor aphthous lesions (aphtha (canker sores); [2]): did not cause any pain whatsoever
follow up with no new aphthous lesions (aphtha (canker sores); Example 2: HCQ solution 3.7 mg/ml, rinsed 20 days in total): 3 months
aphtha of the tongue (about 8 mm), 5 days later (aphtha (canker sores); [3]): completely disappeared
major aphtha of the lower lip (12 mm), 5 days later (aphtha (canker sores); [3]): decreased in size to about half its original size
major aphtha on the lower lip mucosa after 6 additional days (aphtha (canker sores); Example 2: HCQ solution 3.7 mg/ml, 5 + 6 days, left a pronounced scar): disappeared completely
time after start of rinses until pain completely disappeared (aphtha (canker sores); Example 2: person, two major aphthae, 10 ml HCQ solution 3.7 mg/ml, three times a day, 3 to 5 min): 24 h
diameter of aphtha on the lower lip after 5 days (initially about 3 mm) (aphtha (canker sores); [4]): about 1 mm
time from start of rinsing until free of any pain (aphtha (canker sores); [4]): 24 h
follow up after cessation of rinses without new aphthae (aphtha (canker sores); Example 3: HCQ solution 2.5 then 3.7 mg/ml): 5 weeks
time until aphtha on the lower lip disappeared completely after continuing with 3.7 mg/ml (aphtha (canker sores); Example 3: after 5 days at 2.5 mg/ml, HCQ solution 3.7 mg/ml three times a day): ≤ 2 days
lesion on upper lip (about 6 mm) after 5 days (aphtha (canker sores); Example 3: child, 10 ml HCQ solution 2.5 mg/ml, three times a day, 3 to 5 min): almost disappeared
aphthae-free period (aphtha (canker sores); Example 4: HCQ solution 1.2 mg/ml): 7 months
state of the aphtha after 7 days of rinsing (aphtha (canker sores); Example 4: HCQ solution 1.2 mg/ml, three times a day): almost disappeared
time from start of rinses until free of any pain (aphtha (canker sores); Example 4: person, diabetes mellitus, major aphthous lesion about 8 mm, 10 ml HCQ solution 1.2 mg/ml, three times a day): 24 h
follow up with no new aphthae (aphtha (canker sores); Example 5: HCQ solution 1.2 mg/ml): 4 months
time until aphtha completely disappeared (aphtha (canker sores); Example 5: HCQ solution 1.2 mg/ml, three times a day): three
time of rinses until no pain (aphtha (canker sores); Example 5: person, minor aphtha 4-5 mm, 10 ml HCQ solution 1.2 mg/ml, three times a day): one
diameter of the aphtha two days later (initially approximately 1 cm) (aphtha; Example 8: 3.72 mg/cc HCQ rinse followed by 0.12% chlorhexidine rinse, 3 times a day): about 7 mm
state of the aphtha after 2 additional days of treatment (aphtha; Example 8: 3.72 mg/cc HCQ rinse followed by 0.12% chlorhexidine rinse, 2 + 2 days): completely disappeared
time until totally free of pain (aphtha; Example 8: person, major aphtha approx. 1 cm, probable secondary infection, 3.72 mg/cc HCQ rinse followed by 0.12% chlorhexidine rinse, 3 times a day): Two

C=C[C@H]1C[N@@]2CC[C@H]1C[C@@H]2[C@@H](O)c1ccnc2ccc(OC)cc12 [quinidine sulfate]
activity in treating oral mucositis ([1]; general statement): active

C=C[C@H]1C[N@@]2CC[C@H]1C[C@H]2[C@H](O)c1ccnc2ccc(OC)cc12 [quinine sulfate]
time until pain decreased significantly (aphtha; Example 9: person, minor aphtha, 10 ml quinine sulfate solution 3 mg/cc followed by 0.12% chlorhexidine rinse, 3 times a day): ≤ 24 h
time until all the inconvenience disappeared (aphtha; Example 9: quinine sulfate solution 3 mg/cc followed by 0.12% chlorhexidine rinse, 3 times a day): ≤ 48 h

C=C[C@H]1C[N@@]2CC[C@H]1C[C@H]2[C@H](O)c1ccnc2ccc(OC)cc12 [quinine]
outcome in patients with major aphtha accompanied by a secondary infection ([1]; mouth rinsing with 0.083 mg/ml of quinine, and optionally chlorhexidine, several minutes, several times a day): relief of pains and healing
time until ulcer healed completely (aphtha (canker sores); Example 6: 0.085 mg/ml quinine solution, 5 to 7 times a day): ≤ 4 days
time until pain and inconvenience disappeared (aphtha (canker sores); Example 6: person, minor aphtha about 3 mm, 10 ml 0.085 mg/ml quinine solution, 3 to 5 minutes, 5 to 7 times a day): 2 days
follow-up with no further recurrences (aphtha (canker sores); Example 10: 0.085 mg/ml quinine solution): about 6 months
time until disappearance of the aphtha (aphtha (canker sores); Example 10: 0.085 mg/ml quinine solution, rinse and swallow): about 4 days
time until free of any symptoms (aphtha (canker sores); Example 10: person, minor aphtha about 4 mm, 10 ml 0.085 mg/ml quinine solution, about 5 times per day, rinse 3 to 5 min and swallow): ≤ 24 h
erosive/ulcerative lesions after about 4 weeks (erosive lichen planus; [5]): marked healing
symptoms of the lesions after about 4 weeks (erosive lichen planus; [5]): completely asymptomatic
follow-up period with stable asymptomatic condition of lichen planus (erosive lichen planus; Example 7: maintained by quinine solution): about 1 year
pain and masticatory function after 3 days (erosive lichen planus; Example 7: person, rinse (5 to 10 min) and swallow 10-20 ml of 0.085 mg/ml quinine solution, 5 to 7 times a day): significant amelioration
